# Tested on: R. pulicis
# Assay type: cell-based, Rickettsia pulicis
compound,measurement,value
CO[C@H]1/C=C/O[C@@]2(C)Oc3c(C)c(O)c4c(O)c(c(/C=N/N5CCN(C)CC5)c(O)c4c3C2=O)NC(=O)/C(C)=C\C=C\[C@H](C)[C@H](O)[C@@H](C)[C@@H](O)[C@@H](C)[C@H](OC(C)=O)[C@@H]1C [Rifampin],inhibitory at single concentration tested,inhibitory
